System: LOLMU (Lolium multiflorum)
Assay: Greenhouse post-emergence herbicidal test, scale 0 to 100, synergism by Colby's equation
Format: in vivo
Text: Synergism can be described as an interaction where the combined effect of two or more compounds is greater than the sum of the individual effects of each of the compounds. The presence of a synergistic effect in terms of percent control, between two mixing partners (X and Y) can be calculated using the Colby equation (Colby, S. R., 1967, Calculating Synergistic and Antagonistic Responses in Herbicide Combinations, Weeds, 15, 21-22):
When the observed combined control effect is greater than the expected (calculated) combined control effect (E), then the combined effect is synergistic.
However, the weed control afforded by the compounds, mixtures or compositions is not limited to these species. The analysis of synergism or antagonism between the mixtures or compositions was determined using Colby's equation.
The culture containers used were plastic flowerpots containing loamy sand with approximately 3.0% of humus as the substrate. The seeds of the test plants were sown separately for each species and/or resistant biotype. For the pre-emergence treatment, the active ingredients, which had been suspended or emulsified in water, were applied directly after sowing by means of finely distributing nozzles. The containers were irrigated gently to promote germination and growth and subsequently covered with transparent plastic hoods until the plants had rooted. This cover caused uniform germination of the test plants, unless this had been impaired by the active ingredients. For the post-emergence treatment, the test plants were first grown to a height of 3 to 15 cm, depending on the plant habit, and only then treated with the active ingredients which had been suspended or emulsified in water. For this purpose, the test plants were either sown directly and grown in the same containers, or they were first grown separately as seedlings and transplanted into the test containers a few days prior to treatment. Depending on the species, the plants were kept at 10-25° C. or 20-35° C., respectively. The test period extended to 20 days after treatment. During this time, the plants were tended, and their response to the individual treatments was evaluated. The evaluation was carried out by using a scale from 0 to 100. 100 means no emergence of the plants or complete destruction of at least the above-ground parts, and 0 means no damage, or normal course of growth. Data shown are the mean of two replications.
L-Glufosinate: 5% EC formulation
Triaziflam: 5% EC formulation
Methiozolin: 250 g/l SC formulation

SMILES: CP(=O)(O)CC[C@H](N)C(=O)O [L-Glufosinate, (2S)-2-amino-4-[hydroxy(methyl)phosphinoyl]butyric acid]
- Herbicidal activity against LOLMU, Found (L-Glufosinate alone 75 g ai/ha, scale 0-100 (100 = complete destruction), Example 1): 0
- Herbicidal activity against LOLMU, Found (L-Glufosinate alone 75 g ai/ha, scale 0-100, Example 2): 0

SMILES: Cc1ccsc1C1=NOC(C)(COCc2c(F)cccc2F)C1 (stereo not drawn) [methiozoline, methiozolin]
- Herbicidal activity against LOLMU, Found (methiozoline alone 125 g ai/ha, scale 0-100, Example 2): 0
- Herbicidal activity against LOLMU, Found (methiozoline alone 250 g ai/ha, scale 0-100, Example 2): 25

SMILES: Cc1cc(C)cc(OCC(C)Nc2nc(N)nc(C(C)(C)F)n2)c1 (stereo not drawn) [triaziflam]
- Herbicidal activity against LOLMU, Found (triaziflam alone 125 g ai/ha, scale 0-100, Example 1): 10
- Herbicidal activity against LOLMU, Found (triaziflam alone 250 g ai/ha, scale 0-100, Example 1): 55

Reference: patent US11122807B2, “Herbicidal mixtures comprising L-glufosinate or its salt and a second herbicide” (BASF SE, priority 2017, dated 2021)
